Source: patent US10815222B2, “Compounds for use in the treatment of kinetoplastid infection” (C.N.C.C.S. S.c.a.r.l. COLLEZIONE NAZIONALE DEI COMPOSTI …, priority 2016, dated 2020)

What follows are compounds tested on Bloodstream form of Trypanosoma brucei, strain Lister 427 (assay: Trypanosoma brucei growth inhibition assay (CellTiter-Glo, 24 h)). Details: Trypanosoma brucei; T. Brucei Growth Inibition Assay, class symbols; read-out: T. Brucei GI EC50.
Type: cell-based
Protocol: Bloodstream form of Trypanosoma brucei, strain Lister 427 (provided by Prof. Miguel Navarro, Instituto de Parasitologia y Biomedicina “Lopez-Neyra” Avda. Conocimiento S/N Parque Tecnologico Ciencias de la Salud—Spain; ref. Navarro M. and Cross G. A. M. Molecular and Cellular Biology, 1996, Vol. 16, No. 7, pp. 3615-3625) were grown in IMDM Iscove's Modified Dulbecco's Medium (SIGMA #17633) supplemented with: 3.024 g/l sodium bicarbonate, hypoxanthine 1 mM, thymidine 0.16 mM, bathocuprione sulfonic acid 0.05 mM, cysteine 1.5 mM, ß-mercaptoethanol […] and 10% foetal bovine serum (heat-inactivated at 56° C. for 30 min). Parasites were grown at 37° C. in flasks with vented caps in a 5% CO2 incubator to a maximum cell density of about 2×10^6/ml and diluted every two-three days.
The compounds of the invention were dissolved in DMSO and transferred to assay plates by acoustic droplet ejection (ATS-100, EDC Biosystems, USA) in order to obtain an appropriate concentration and to keep the concentration of DMSO below or equal to 0.25% in the final assay volume of 30 μL. 1500 parasites resuspended in 30 μL of culture medium were then transferred to each well of a 384-well plate.
After an incubation period of 24 hours at 37° C., each well is added 15 μl of CellTiter-Glo® Reagent (Promega) and incubated at room temperature. 5-10 min post incubation, the plate is read using a luminometer (ViewLux®). A known inhibitor of the growth of T. brucei was used as the reference positive control.
Compound `COc1nc2ccccc2cc1-c1cnc([C@@H]2CN(CC3CCOC3)CCN2C(=O)C(C)(C)n2c(C(F)(F)F)nc3ccccc32)[nH]1` (stereo partly drawn) has an EC50 of 1010 to 5000 nM.
Work on `COc1ccc2nc(C(F)(F)F)n(CC(=O)N3CCN(Cc4noc(C)n4)CCC3c3ncc(-c4cc5ccccc5nc4OC)[nH]3)c2c1` (stereo not drawn) yielded an EC50 of 100 to 500 nM.
`O=C(Cc1c[nH]c2ccc(O)cc12)N1CCN(CC2CCOC2)CC1c1ncc(-c2ccc3ccccc3c2)[nH]1` (stereo not drawn) was tested, and the EC50 was 510 to 1000 nM.
`CCC(=O)CCCN1CCN(C(=O)Cc2c(C)[nH]c3ccc(OC)cc23)C(c2ncc(-c3cc4ccccc4nc3OC)o2)C1` (stereo not drawn) showed an EC50 of 1010 to 5000 nM.
Work on `COc1nc2ccccc2cc1-c1cnc([C@@H]2CN(Cc3nccs3)CCN2C(=O)Cn2c(C(F)(F)F)nc3ccccc32)[nH]1` [(S)-1-(2-(5-(2-methoxyquinolin-3-yl)-1H-imidazol-2-yl)-4-(thiazol-2-ylmethyl)piperazin-1-yl)-2-(2-(trifluoromethyl)-1H-benzo[d]imidazol-1-yl)ethan-1-one] yielded an EC50 of less than 100 nM.
`COc1nc2ccccc2cc1-c1cnc(C2CN(Cc3cocn3)CCN2C(=O)Cc2c(C)[nH]c3ccc(F)cc23)[nH]1` (stereo not drawn) showed an EC50 of 100 to 500 nM.
`COc1nc2ccccc2cc1-c1cnc(C2CN(CC3CCOC3)CCN2C(=O)c2ccnc3ccccc23)[nH]1` (stereo not drawn) was tested, and the EC50 was 1010 to 5000 nM.
For `COc1nc2ccccc2cc1-c1cnc(C2COCCN2C(=O)Cn2nnc3ccccc32)[nH]1` (stereo not drawn), the EC50 was 1010 to 5000 nM.
`CCC(=O)CCCN1CCN(C(=O)Cc2c(C)[nH]c3ccc(OC)cc23)C(c2ncc(-c3ccc4ccccc4c3)o2)C1` (stereo not drawn) [6-(4-(2-(5-methoxy-2-methyl-1H-indol-3-yl)acetyl)-3-(5-(naphthalen-2-yl)oxazol-2-yl)piperazin-1-yl)hexan-3-one] gave an EC50 of 1010 to 5000 nM.
`COc1nc2ccccc2cc1-c1cnc(C2CN(C(C)=O)CCN2C(=O)Cc2ccccc2)[nH]1` (stereo not drawn) showed an EC50 of 1010 to 5000 nM.
`COc1ccc2[nH]c(C)c(CC(=O)N3CCN(C)CC3c3ncc(-c4ccc5ccccc5c4)n3C)c2c1` (stereo not drawn) showed an EC50 of 1010 to 5000 nM.
Work on `COc1ccc2nc(C(F)(F)F)n(CC(=O)N3CCS(=O)(=O)C[C@H]3c3ncc(-c4cc5ccccc5nc4OC)[nH]3)c2c1` [(R)-2-(6-methoxy-2-(trifluoromethyl)-1H-benzo[d]imidazol-1-yl)-1-(3-(5-(2-methoxyquinolin-3-yl)-1H-imidazol-2-yl)-1,1-dioxidothiomorpholino)ethan-1-one] yielded an EC50 of 100 to 500 nM.
In the case of `COc1ccc2nc(C(F)(F)F)n(CC(=O)N3CC[C@H](NCc4cnccn4)C[C@H]3c3ncc(-c4cc5ccccc5nc4OC)[nH]3)c2c1` [2-(6-methoxy-2-(trifluoromethyl)-1H-benzo[d]imidazol-1-yl)-1-((2S,4S)-2-(5-(2-methoxyquinolin-3-yl)-1H-imidazol-2-yl)-4-((pyrazin-2-ylmethyl)amino)piperidin-1-yl)ethan-1-one], the EC50 is reported as less than 100 nM.
For `COc1ccc2c(CC(=O)N3CCN(CC4CCOC4)CC3c3ncc(-c4cc5ccccc5nc4OC)[nH]3)coc2c1` (stereo not drawn), the EC50 was 510 to 1000 nM.
Compound `COc1ccc2nc(C)n(CC(=O)N3CCN(C4CCN(C(C)=O)CC4)C[C@H]3c3ncc(-c4cc5ccccc5nc4OC)[nH]3)c2c1` has an EC50 of 510 to 1000 nM.
In the case of `COc1ccc2nc(C(F)(F)F)n(CC(=O)N3CCN(Cc4ccccn4)CCC3c3ncc(-c4cc5ccccc5nc4OC)[nH]3)c2c1` (stereo not drawn) [2-(6-methoxy-2-(trifluoromethyl)-1H-benzo[d]imidazol-1-yl)-1-(7-(5-(2-methoxyquinolin-3-yl)-1H-imidazol-2-yl)-4-(pyridin-2-ylmethyl)-1,4-diazepan-1-yl)ethan-1-one], the EC50 is reported as less than 100 nM.
In the case of `COc1ccc2nc(C(F)(F)F)n(CC(=O)N3CCN(CCc4ccccn4)CCC3c3ncc(-c4cc5ccccc5nc4OC)[nH]3)c2c1` (stereo not drawn) [2-(6-methoxy-2-(trifluoromethyl)-1H-benzo[d]imidazol-1-yl)-1-(7-(5-(2-methoxyquinolin-3-yl)-1H-imidazol-2-yl)-4-(2-(pyridin-2-yl)ethyl)-1,4-diazepan-1-yl)-ethan-1-one], the EC50 is reported as 100 to 500 nM.
`COc1nc2ccccc2cc1-c1cnc(C2CN(Cc3cc[n+]([O-])cc3)CCN2C(=O)Cc2c(C)[nH]c3ccc(F)cc23)[nH]1` (stereo not drawn) showed an EC50 of 1010 to 5000 nM.
With `COc1nc2ccccc2cc1-c1cnc(C2CN(CC3CCCC3)CCN2C(=O)Cc2c(C)[nH]c3ccc(F)cc23)[nH]1` (stereo not drawn) the EC50 was 100 to 500 nM.
`COc1nc2ccccc2cc1-c1cnc(C2CN(C3CCS(=O)(=O)CC3)CCN2C(=O)Cc2c(C)[nH]c3ccc(F)cc23)[nH]1` (stereo not drawn) showed an EC50 of 100 to 500 nM.
For `Cc1csc(CC(=O)N2CCN(Cc3ccccc3)CC2c2ncc(-c3ccc4ccccc4c3)[nH]2)n1` (stereo not drawn), the EC50 was 1010 to 5000 nM.
For `COc1ccc2nc(C)n(CC(=O)N3CCN(C[C@H]4CCOC4)CC3c3ncc(-c4ccc(-c5ccccc5)nc4OC)[nH]3)c2c1` (stereo partly drawn), the EC50 was 100 to 500 nM.
Work on `COc1ccc2nc(C(F)(F)F)n(CC(=O)N3CC[C@H](N(C)C4CCOC4)C[C@H]3c3ncc(-c4cc5ccccc5nc4OC)[nH]3)c2c1` (stereo partly drawn) [2-(6-methoxy-2-(trifluoromethyl)-1H-benzo[d]imidazol-1-yl)-1-((2S,4S)-2-(5-(2-methoxyquinolin-3-yl)-1H-imidazol-2-yl)-4-(methyl(tetrahydrofuran-3-yl)amino)piperidin-1-yl)ethan-1-one] yielded an EC50 of less than 100 nM.
`CCCCCCN1CCN(C(=O)Cc2c[nH]c3ccc(O)cc23)C(c2ncc(-c3ccc4ccccc4c3)[nH]2)C1` (stereo not drawn) showed an EC50 of 1010 to 5000 nM.
For `COc1nc2ccccc2cc1-c1cnc(C2CN([S+]([O-])C(C)C)CCN2C(=O)Cc2c(C)[nH]c3ccc(F)cc23)[nH]1` (stereo not drawn) [2-(5-fluoro-2-methyl-1H-indol-3-yl)-1-(4-(isopropylsulfinyl)-2-(5-(2-methoxyquinolin-3-yl)-1H-imidazol-2-yl)piperazin-1-yl)ethan-1-one], the EC50 was 1010 to 5000 nM.
Work on `CN1CCN(C(=O)CCS(=O)(=O)c2ccccc2)C(c2ncc(-c3ccc4ccccc4c3)[nH]2)C1` (stereo not drawn) yielded an EC50 of 1010 to 5000 nM.
Compound `COc1nc2ccccc2cc1-c1cnc([C@@H]2CN(CC3CCOC3)CCN2C(=O)Cn2c(C3CCC3)nc3ccccc32)[nH]1` (stereo partly drawn) has an EC50 of 100 to 500 nM.
With `COc1ccc2nc(C)n(CC(=O)N3CCN(C4CCOC4)C[C@H]3c3ncc(-c4cc5ccccc5nc4OC)[nH]3)c2c1` (stereo partly drawn) the EC50 was 100 to 500 nM.
`COc1nc2ccccc2cc1-c1cnc(C2CN(CC3CCOC3)CCN2C(=O)Cc2nc(-c3ccccc3)oc2C)[nH]1` (stereo not drawn) was tested, and the EC50 was 1010 to 5000 nM.
In the case of `COc1nc2ccccc2cc1-c1cnc([C@@H]2CN(CC3CCOC3)CCN2C(=O)Cn2c(C)nc3cncnc32)[nH]1` (stereo partly drawn), the EC50 is reported as 100 to 500 nM.
In the case of `COc1ccc2nc(C(F)(F)F)n(CC(=O)N3CC[C@H](NCC4COC4)C[C@H]3c3ncc(-c4cc5ccccc5nc4OC)[nH]3)c2c1` [2-(6-methoxy-2-(trifluoromethyl)-1H-benzo[d]imidazol-1-yl)-1-((2S,4S)-2-(5-(2-methoxyquinolin-3-yl)-1H-imidazol-2-yl)-4-((oxetan-3-ylmethyl)amino)piperidin-1-yl)ethan-1-one], the EC50 is reported as less than 100 nM.
Compound `COc1nc2ccccc2cc1-c1cnc(C2CN(C(=O)C3CCOC3)CCN2C(=O)Cc2c(C)[nH]c3ccc(F)cc23)[nH]1` (stereo not drawn) [2-(5-fluoro-2-methyl-1H-indol-3-yl)-1-(2-(5-(2-methoxyquinolin-3-yl)-1H-imidazol-2-yl)-4-(tetrahydrofuran-3-carbonyl)piperazin-1-yl) ethan-1-one] has an EC50 of 1010 to 5000 nM.
`COc1nc2ccccc2cc1-c1cnc([C@@H]2CN(CC3CCOC3)CCN2C(=O)Cn2c(S(C)(=O)=O)nc3ccccc32)[nH]1` (stereo partly drawn) gave an EC50 of 100 to 500 nM.
In the case of `COc1ccc2nc(C(F)(F)F)n(CC(=O)N3CCN(C4CCS(=O)(=O)CC4)CCC3c3ncc(-c4cc5ccccc5nc4OC)[nH]3)c2c1` (stereo not drawn) [1-(4-(1,1-dioxidotetrahydro-2H-thiopyran-4-yl)-7-(5-(2-methoxyquinolin-3-yl)-1H-imidazol-2-yl)-1,4-diazepan-1-yl)-2-(6-methoxy-2-(trifluoromethyl)-1H-benzo[d]imidazol-1-yl)ethan-1-one], the EC50 is reported as less than 100 nM.
`COc1ccc2nc(C)n(CC(=O)N3CCN(CC4CCOC4)C[C@H]3c3ncc(-c4ccc5ncsc5c4)[nH]3)c2c1` (stereo partly drawn) [1-((2S)-2-(5-(benzo[d]thiazol-6-yl)-1H-imidazol-2-yl)-4-((tetrahydrofuran-3-yl)methyl)piperazin-1-yl)-2-(6-methoxy-2-methyl-1H-benzo[d]imidazol-1-yl)ethan-1-one] showed an EC50 of 1010 to 5000 nM.
With `COc1ccc2nc(C(F)(F)F)n(CC(=O)N3CCN(C4CCN(C)CC4)C[C@H]3c3ncc(-c4cc5ccccc5nc4OC)[nH]3)c2c1` the EC50 was 100 to 500 nM.
`O=C(Cc1c[nH]c2ccc(O)cc12)N1CCN(Cc2ccccc2)CC1c1ncc(-c2ccc3ccccc3c2)[nH]1` (stereo not drawn) gave an EC50 of 1010 to 5000 nM.
In the case of `COc1ccc2c(c1)nc(C(F)(F)F)n2CC(=O)N1CCN(CC2CCOC2)C[C@H]1c1ncc(-c2cc3ccccc3nc2OC)[nH]1` (stereo partly drawn) [2-(5-methoxy-2-(trifluoromethyl)-1H-benzo[d]imidazol-1-yl)-1-((2S)-2-(5-(2-methoxyquinolin-3-yl)-1H-imidazol-2-yl)-4-((tetrahydrofuran-3-yl)methyl)piperazin-1-yl)ethan-1-one], the EC50 is reported as less than 100 nM.
In the case of `COc1ccc2nc(C(F)(F)F)n(CC(=O)N3CCN(C4CCS(=O)(=O)CC4)C[C@H]3c3ncc(-c4cc5ccccc5nc4OC)[nH]3)c2c1` [(S)-1-(4-(1,1-dioxidotetrahydro-2H-thiopyran-4-yl)-2-(5-(2-methoxyquinolin-3-yl)-1H-imidazol-2-yl)piperazin-1-yl)-2-(6-methoxy-2-(trifluoromethyl)-1H-benzo[d]imidazol-1-yl)ethan-1-one], the EC50 is reported as less than 100 nM.
